Assay results: patent publication EP0446604A2, “Pyridine and related aza heterocycle derivatives as cardiovascular agents” (AMERICAN CYANAMID COMPANY, priority 1990, dated 1991)
Where a name gives a salt, the structure may show the parent alone.

Key:
[1] = test system: spontaneously hypertensive rats of the Okamoto strain; assay: Hypotensive activity in spontaneously hypertensive rats (method of Chan and Poorvin); assay type: in vivo; conditions: by gavage, 100 mg/kg or less, second identical dose 24 hours later, MABP measured 28 hours after initial dose, average MABP of the rats used 160±1.5 mm of mercury
Experimental: The novel compounds of the present invention are active hypotensive agents and were tested for hypotensive activity by the method of P.S. Chan and D. Poorvin, Clinical and Experimental Hypertension, 1 (6), 817-830 (1979). Male, 16 week old, spontaneously hypertensive rats of the Okamoto strain, from Taconic Farms, Germantown, New York, having an average mean arterial blood pressure of 160±1.5 mm of mercury, were used in the test. One to four rats were used per test compound. A rat is dosed by gavage with a test compound suspended in 2% pre-boiled starch at a concentration of 50 mg/ml, at a dose of 100 mg/kg of body weight or less, with 0.9% sodium chloride loading at a dose of 25 ml/kg of body weight. A second identical dose of the test compound, without sodium chloride loading is given 24 hours later. At 28 hours after the initial dose the mean arterial blood pressure (MABP) is measured. The procedure is repeated in a second and third rat when necessary. The results of this test on representative compounds of the present invention appear below in Table II.

[2] = target: T1, thromboxane synthetase enzyme (Rattus norvegicus, UniProt P49430); assay: Inhibition of thromboxane (TXB2) formation in washed rat platelets, TXB2 radioimmunoassay; assay type: biochemical, Okamoto-Aoki spontaneously hypertensive rats (SHR); conditions: Concentration 1x10^-4M, platelet suspension incubated 10 minutes at 37 °C
T1 construct: from tissue; host or cells: washed blood platelets from Okamoto-Aoki spontaneously hypertensive rats (SHR)
T1 sequence (P49430 1-533): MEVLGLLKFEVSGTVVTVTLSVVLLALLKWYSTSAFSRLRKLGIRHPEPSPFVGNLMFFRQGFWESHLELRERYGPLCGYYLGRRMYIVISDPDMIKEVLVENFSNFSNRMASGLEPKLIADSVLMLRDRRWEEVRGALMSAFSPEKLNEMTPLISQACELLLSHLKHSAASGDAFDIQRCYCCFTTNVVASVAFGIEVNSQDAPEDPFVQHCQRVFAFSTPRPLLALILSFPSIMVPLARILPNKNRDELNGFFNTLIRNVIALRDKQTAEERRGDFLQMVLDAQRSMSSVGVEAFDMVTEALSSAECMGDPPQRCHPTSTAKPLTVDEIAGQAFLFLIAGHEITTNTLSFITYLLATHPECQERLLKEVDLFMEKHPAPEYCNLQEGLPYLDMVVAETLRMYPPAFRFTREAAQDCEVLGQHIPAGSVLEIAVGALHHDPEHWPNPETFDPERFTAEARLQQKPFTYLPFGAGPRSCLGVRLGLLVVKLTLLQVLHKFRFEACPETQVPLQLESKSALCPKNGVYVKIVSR
Experimental: Under urethan anesthesia, […] of arterial blood from Okamoto-Aoki spontaneously hypertensive rats (SHR) (Taconic Farms, Germantown, NY) between 19 and 24 weeks in age is collected in one ml of 3.2% sodium citrate in a polystyrene tube. The blood is diluted with 3 ml of cold saline and centrifuged at room temperature for 15 minutes at 460xg. The platelet rich plasma (PRP) is separated. The platelets are isolated by centrifuging the PRP for 10 minutes at 1060xg and are washed in 4 ml of cold oxygenated Krebs phosphate buffer, pH 7.4. The chilled platelets, recovered from centrifuging at 800xg for 10 minutes, are resuspended in oxygenated Krebs phosphate buffer and diluted to contain 4.5-6.0 x 10⁴ platelets/µ1. The inhibition of thromboxane (TX) formation is studied by determining the concentration of thromboxane B₂ (TXB₂), the stable hydrolysis product of TXA₂. Assay samples, prepared on ice, contain 200 µ1 platelet suspension, 50 µ1 saline, and 50 µ1 vehicle (saline) or drug under study. The samples are incubated for 10 minutes at 37 °C in a metabolic shaker. The reaction is terminated by immersing the tubes in an ice bath and adding 50 µl of 0.5M citric acid. The samples are centrifuged for 10 minutes in a refrigerated centrifuge and the supernatants thus obtained are decanted and stored at -20 °C. The TXB₂ content for each sample is determined by a direct radioimmunoassay (RIA) utilizing a TXB₂ specific RIA kit purchased from New England Nuclear, Boston, MA and expressed as pg TXB₂ formed per minute per sample, from which the percent inhibition of TXB₂ formation is calculated.

[3] = test system: Male mice of the Swiss Webster Strain; assay: Calcium chloride-induced arrhythmia in anesthetized mice (survival); assay type: in vivo; conditions: Mus musculus, iv, Dose = 10 mg/kg i.v.; calcium chloride 200 mg/kg i.v. bolus 5, 15 or 30 minutes after drug; observed 15 minutes; read-out: CaCl2 #Mice Surviving #Mice Tested (converted)
Excerpt: (§1) Intravenous administration of high doses of calcium or potassium chloride in animals produces cardiac arrhythmias, cardiac fibrillation and cardiac arrest. Any agent that can prevent these events is considered an antiarrhythmic/antifibrillatory agent. (Meth. and Find Exptl. Clin Pharmacol.2:223-252(1980); Pharmacol, Ther. 24:401-433 (1984); Experimental Cardiac and Antiarrhythmic Drugs, L. Szekeres and Gy. J. Dapp, Akademiai Kiado Preso, Budapest, 9-448 (1971).)
(§2) The method employed is as follows: Male mice of the Swiss Webster Strain (Charles River, Wilmington, MA) weighing 25-35 g are anesthetized with ethyl carbamate (urethan) (1.5g/kg body weight i.p.). A 25-gauge needle attached to PE-20 tubing is inserted into a caudal vein for drug administration. The lead II ECG is recorded by needle electrodes placed subcutaneously in the limbs. All data is collected on a Gould Brush recorder. Animals are observed 5 minutes before drug administration. A 5, 15, or 30 minute period following drug administration is allowed before the bolus injection of calcium chloride, 200 mg/kg i.v. or potassium chloride, 62.5 mg/kg i.v. Control mice receive 4 ml/kg of 0.9% sodium chloride i.v. Mice are observed an additional 15 minutes for arrhythmias, fibrillation, survival or death. Any compound at a dose of less than 20 mg/kg i.v. that protects 3 out of 6 mice from cardiac death in either the potassium or calcium chloride test, is considered active.

[4] = test system: Male mice of the Swiss Webster Strain; assay: Potassium chloride-induced arrhythmia in anesthetized mice (survival); assay type: in vivo; conditions: Mus musculus, iv, Dose = 10 mg/kg i.v.; potassium chloride 62.5 mg/kg i.v. bolus 5, 15 or 30 minutes after drug; observed 15 minutes; read-out: KCl #Mice Surviving #Mice Tested (converted)
Excerpt: as §1, §2

| SMILES | Avg. MABP in mm Hg (No. of Rats) ([1]; 100 mg/kg) | inhibition at 100 µM [2] [%] | Avg. MABP in mm Hg (No. of Rats) [1] | responders at 10 mg/kg [3] [%] | responders at 10 mg/kg [4] [%] |
| --- | --- | --- | --- | --- | --- |
| O=[N+]([O-])c1ccc(NCCCn2ccnc2)nc1 [Example 1, N-[3-(1H-Imidazol-1-yl)propyl]-5-nitro-2-pyridinamine,(Z)-2-butenedioate (1:1)] | 121 (4) mm Hg |  |  |  |  |
| Cc1ccc(C#N)c(NCCCn2ccnc2)n1 [Example 3, 2-[[3-(1H-Imidazol-1-yl)propyl]amino]-6-methyl-3-pyridinecarbonitrile] |  | 79 | 80 (2) mm Hg |  |  |
| Cc1cc(NCCCn2ccnc2)nc2ccccc12 [Example 6, N-[3-(1H-Imidazol-1-yl)propyl]-4-methyl-2-quinolinamine] |  | 98 | 100 (3) mm Hg |  |  |
| O=[N+]([O-])c1ccc(NCCCn2ccnc2)nc1 [Example 11, N-[3-(1H-imidazol-1-yl)propyl]-5-nitro-2-pyridinamine] | 119 (2) mm Hg |  |  | 0 | 50 |
| c1ccc2c(NCCCn3ccnc3)nccc2c1 [Example 14, N-[3-(1H-Imidazol-1-yl)propyl]-1-isoquinolinamine] |  | 84 | 121 (3) mm Hg |  |  |
| COc1ccc2nc(NCCCn3ccnc3)cc(C)c2c1 [Example 21, N-[3-(1H-Imidazol-1-yl)propyl]-6-methoxy-4-methyl-2-quinolinamine] |  | 97 | 110 (2) mm Hg |  |  |
| c1cn(CCCNc2ccc3sccc3n2)cn1 [Example 62, N-[3-(1H-Imidazol-1-yl)propyl]thieno[3,2-b]-pyridin-5-amine] |  | 91 | 105 (2) mm Hg |  |  |
| N#Cc1cc2ccccc2nc1NCCCn1ccnc1 [Example 82, 2-[[3-(1H-Imidazol-1-yl)propyl]amino]-3-quinolinecarbonitrile] |  |  | 94 (2) mm Hg |  |  |
| Cc1cc(NCCC(C)n2ccnc2)nc2ccccc12 (stereo not drawn) [Example 87, N-[3-(1H-Imidazol-1-yl)butyl]-4-methyl-2-quinolinamine] |  |  | 111 (2) mm Hg |  |  |
| Cc1ccc(C#N)c(NCCCCCn2ccnc2)n1 [Example 90, 2-[[5-(1H-Imidazol-1-yl)pentyl]amino]-6-methyl-3-pyridinecarbonitrile] |  |  | 116 (2) mm Hg | 0 | 50 |
| Cc1cc(NCCCCn2ccnc2)nc2ccccc12 [Example 101, N-[4-(1H-Imidazol-1-yl)butyl]-4-methyl-2-quinolinamine] |  |  | 96 (2) mm Hg |  |  |
| Cc1cc(NCCCCc2cccnc2)nc2ccccc12 [Example 103, 4-Methyl-N-4-(3-pyridinylbutyl)-2-quinolinamine, dihydrochloride] |  |  | 87 (2) mm Hg |  |  |
| c1ccc2c(c1)nc(NCCCCn1ccnc1)c1ccccc12 [Example 104, N-[4-(1H-Imidazol-1-yl)butyl]-6-phenanthridinamine] |  |  | 93 (1) mm Hg |  |  |
| c1cncc(CCCCNc2nccc3ccccc23)c1 [Example 105, N-[4-(3-Pyridinyl)butyl]-1-isoquinolinamine, dihydrochloride] |  | 97 |  | 50 | 66.7 |
| COc1ccc2nc(NCCCCc3cccnc3)cc(C)c2c1 [Example 106, 6-Methoxy-4-methyl-N-[4-(3-pyridinyl)butyl]-2-quinolinamine] |  | 97 | 120 (2) mm Hg |  |  |
| Cc1cc(NCCCCc2cccnc2)nc2c(C)cccc12 [Example 107, 4,8-Dimethyl-N-[4-(3-pyridinyl)butyl]-2-quinolinamine] |  | 99 |  | 0 | 83.3 |
| Cc1ccc(C#N)c(NCCCCc2cccnc2)n1 [Example 108, 6-Methyl-2-[[4-(3-pyridinyl)butyl]amino]-3-pyridinecarbonitrile] |  | 96 |  | 66.7 | 83.3 |
